# Reference: patent publication US11780826B2 (Amgen Inc., priority 2017, dated 2023)
# System: Bovine cardiac myofibrils
# Experiment: In vitro model of dose-dependent myofibril ATPase modulation (AC1.4, pyruvate kinase/lactate dehydrogenase-coupled ATPase assay at pCa25)
# Assay type: biochemical
# Conditions: concentration at which ATPase activity was 1.4-fold higher than the bottom of the dose curve, mean of a minimum of two independent tests
# Summary of the method: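 Coupled-enzyme ATPase on bovine heart myofibrils, 1 mM ATP, EGTA/CaCl2 buffered; 340 nm readout.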
row,SMILES,AC1.4 [µM]
1,"CN(C)S(=O)(=O)c1cccc(C(=O)N2C[C@H]3C[C@H]3[C@@H]2C(=O)NCc2ccc(C(F)(F)F)cc2)c1 [Example 478, (1R,2R,5S)-3-(3-(dimethylsulfamoyl)benzoyl)-N-(4-(trifluoromethyl)benzyl)-3-azabicyclo[3.1.0]hexane-2-carboxamide]",2.082
2,"CS(=O)(=O)c1cccc(C(=O)N2CCC[C@@H]2C(=O)N[C@@H](c2ccc(Cl)cc2F)C2CC2)c1 [Example 479, N-((R)-(4-chloro-2-fluorophenyl)(cyclopropyl)methyl)-1-(3-(methylsulfonyl)benzoyl)-D-prolinamide]",1.887
3,"O=C(N[C@@H](c1ccc(C(F)(F)F)cc1F)C1COC1)[C@H]1C[C@H]2C[C@H]2N1C(=O)c1ccnc(C(F)F)c1 [Example 480, (1R,3R,5R)-2-((2-(difluoromethyl)-4-pyridinyl)carbonyl)-N-((R)-(2-fluoro-4-(trifluoromethyl)phenyl)(3-oxetanyl)methyl)-2-azabicyclo[3.1.0]hexane-3-carboxamide]",2.1525
4,CS(=O)(=O)c1cccc(C(=O)N2CCC[C@@H]2C(=O)NC(c2ccc(C(F)(F)F)cc2)C2CNC(=O)C2)c1 (some centres unmarked) [Example 482],1.945
5,"O=C(NCc1ccc(C(F)(F)F)cc1)[C@H]1CCCN1C(=O)[C@H]1CCCN(S(=O)(=O)N2CC(C3CCC3)C2)C1 [Example 483, 1-(((3S)-1-((3-cyclobutyl-1-azetidinyl)sulfonyl)-3-piperidinyl)carbonyl)-N-(4-(trifluoromethyl)benzyl)-D-prolinamide]",2.168
6,"CS(=O)(=O)c1cccc(C(=O)N2C[C@@H]3C[C@@H]3[C@@H]2C(=O)N[C@@H](c2ccc(C(F)(F)F)cc2F)C2CC2)c1 [Example 484, (1S,2R,5R)-N-((R)-cyclopropyl(2-fluoro-4-(trifluoromethyl)phenyl)methyl)-3-(3-(methylsulfonyl)benzoyl)-3-azabicyclo[3.1.0]hexane-2-carboxamide]",2.014
7,"CS(=O)(=O)c1cccc(C(=O)N2[C@@H](C(=O)N[C@@H](c3ccc(Cl)c(F)c3)C3CC3)C[C@H]3C[C@H]32)c1 [Example 485, (1R,3R,5R)-N-((R)-(4-chloro-3-fluorophenyl)(cyclopropyl)methyl)-2-(3-(methylsulfonyl)benzoyl)-2-azabicyclo[3.1.0]hexane-3-carboxamide]",2.0445
8,"O=C(NCc1ccc(C(F)(F)F)cc1)[C@H]1CCCN1C(=O)c1cccc(S(=O)(=O)N2CCC2)c1 [Example 486, 1-(3-(l-azetidinylsulfonyl)benzoyl)-N-(4-(trifluoromethyl)benzyl)-D-prolinamide]",2.202
9,"O=C(N[C@@H](c1cc(F)c(Cl)cc1F)C1COC1)[C@H]1C[C@H]2C[C@H]2N1C(=O)c1cc(C(F)(F)F)ncn1 [Example 487, (1R,3R,5R)-N-((R)-(4-chloro-2,5-difluorophenyl)(3-oxetanyl)methyl)-2-((6-(trifluoromethyl)-4-pyrimidinyl)carbonyl)-2-azabicyclo[3.1.0]hexane-3-carboxamide]",2.218
10,"CS(=O)(=O)c1cncc(C(=O)N2C[C@@H](F)C[C@@H]2C(=O)N[C@@H](c2cc(F)c(Cl)cc2F)C2CC2)c1 [Example 488, (4S)-N-((R)-(4-chloro-2,5-difluorophenyl)(cyclopropyl)methyl)-4-fluoro-1-((5-(methylsulfonyl)-3-pyridinyl)carbonyl)-D-prolinamide]",2.1245
11,"O=C(NCc1ccc(C(F)(F)F)cc1)[C@H]1CCCN1C(=O)[C@H]1CCCN(S(=O)(=O)N2CC(NC(=O)C(F)(F)F)C2)C1 [Example 489, 1-(((3S)-1-((3-((trifluoroacetyl)amino)-1-azetidinyl)sulfonyl)-3-piperidinyl)carbonyl)-N-(4-(trifluoromethyl)benzyl)-D-prolinamide]",2.2325
12,"CS(=O)(=O)c1ccc(C(=O)N2[C@@H](C(=O)N[C@@H](c3ccc(C(F)(F)F)cc3F)C3CC3)C[C@H]3C[C@H]32)cn1 [Example 490, (1R,3R,5R)-N-((R)-cyclopropyl(2-fluoro-4-(trifluoromethyl)phenyl)methyl)-2-((6-(methylsulfonyl)-3-pyridinyl)carbonyl)-2-azabicyclo[3.1.0]hexane-3-carboxamide]",2.1625
13,"O=C(N[C@@H](c1ccc(C(F)(F)F)c(F)c1)C1CC1)[C@H]1C[C@H]2C[C@H]2N1C(=O)c1cncc(S(=O)(=O)C2CC2)c1 [Example 491, (1R,3R,5R)-N-((R)-cyclopropyl(3-fluoro-4-(trifluoromethyl)phenyl)methyl)-2-((5-(cyclopropylsulfonyl)-3-pyridinyl)carbonyl)-2-azabicyclo[3.1.0]hexane-3-carboxamide]",2.181
14,"COC1CN(S(=O)(=O)N2CCC[C@H](C(=O)N3CCC[C@@H]3C(=O)NCc3ccc(C(F)(F)F)cc3)C2)C1 [Example 492, 1-(((3S)-1-((3-methoxy-1-azetidinyl)sulfonyl)-3-piperidinyl)carbonyl)-N-(4-(trifluoromethyl)benzyl)-D-prolinamide]",2.256
15,"O=C(O[C@@H]1C[C@H](C(=O)N[C@@H](c2cc(F)c(Cl)cc2F)C2COC2)N(C(=O)c2ccnc(C(F)(F)F)c2)C1)c1ccnc(C(F)(F)F)c1 [Example 493, (3R,5R)-5-(((R)-(4-chloro-2,5-difluorophenyl)(3-oxetanyl)methyl)carbamoyl)-1-((2-(trifluoromethyl)-4-pyridinyl)carbonyl)-3-pyrrolidinyl2-(trifluoromethyl)-4-pyridinecarboxylate]",2.271
16,"C[C@@H](NC(=O)[C@H]1C[C@H](F)CN1C(=O)[C@H]1CCCN(S(=O)(=O)N2CC(C#N)C2)C1)c1cccc(C(F)(F)F)c1 [Example 494, (2R,4S)-1-((S)-1-((3-cyanoazetidin-1-yl)sulfonyl)piperidine-3-carbonyl)-4-fluoro-N-((R)-1-(3-(trifluoromethyl)phenyl)ethyl)pyrrolidine-2-carboxamide]",2.274
17,"O=C(N[C@@H](c1ccc(C(F)(F)F)cc1F)C1CC1)[C@H]1C[C@H]2C[C@H]2N1C(=O)c1ccnc(C(F)(F)F)c1 [Example 495, (1R,3R,5R)-N-((R)-cyclopropyl(2-fluoro-4-(trifluoromethyl)phenyl)methyl)-2-((2-(trifluoromethyl)-4-pyridinyl)carbonyl)-2-azabicyclo[3.1.0]hexane-3-carboxamide]",2.278
18,"N#CC1CN(S(=O)(=O)N2CCC[C@H](C(=O)N3CCC[C@@H]3C(=O)NCc3cccc(F)c3)C2)C1 [Example 496, 1-(((3S)-1-((3-cyano-1-azetidinyl)sulfonyl)-3-piperidinyl)carbonyl)-N-(3-fluorobenzyl)-D-prolinamide]",2.291
19,"CC(C)(C(N)=O)c1cccc(C(=O)N2[C@@H](C(=O)N[C@@H](c3ccc(C(F)(F)F)cc3F)C3COC3)C[C@H]3C[C@H]32)c1 [Example 497, (1R,3R,5R)-2-(3-(1-amino-2-methyl-1-oxopropan-2-yl)benzoyl)-N—((R)-(2-fluoro-4-(trifluoromethyl)phenyl)(oxetan-3-yl)methyl)-2-azabicyclo[3.1.0]hexane-3-carboxamide]",2.3075
20,"Cc1cc(F)cc(CNC(=O)[C@H]2CCCN2C(=O)[C@H]2CCCN(S(=O)(=O)N3CC(C#N)C3)C2)c1 [Example 498, 1-(((3S)-1-((3-cyano-1-azetidinyl)sulfonyl)-3-piperidinyl)carbonyl)-N-(3-fluoro-5-methylbenzyl)-D-prolinamide]",2.335
21,"CS(=O)(=O)C1CN(S(=O)(=O)N2CCC[C@H](C(=O)N3CCC[C@@H]3C(=O)NCc3ccc(C(F)(F)F)cn3)C2)C1 [Example 499, 1-(((3S)-1-((3-(methylsulfonyl)-1-azetidinyl)sulfonyl)-3-piperidinyl)carbonyl)-N-((5-(trifluoromethyl)-2-pyridinyl)methyl)-D-prolinamide]",2.344
22,"O=C(N[C@@H](c1cc(F)c(Cl)cc1F)C1COC1)[C@H]1C[C@H]2C[C@H]2N1C(=O)c1ccnc(C(F)(F)F)n1 [Example 500, (1R,3R,5R)-N-((R)-(4-chloro-2,5-difluorophenyl)(3-oxetanyl)methyl)-2-((2-(trifluoromethyl)-4-pyrimidinyl)carbonyl)-2-azabicyclo[3.1.0]hexane-3-carboxamide]",2.346
23,"O=C(N[C@@H](c1cc(F)c(Cl)cc1F)C1COC1)[C@H]1C[C@@H](O)CN1C(=O)c1ccnc(C(F)F)c1 [Example 501, (4R)-N-((R)-(4-chloro-2,5-difluorophenyl)(3-oxetanyl)methyl)-1-((2-(difluoromethyl)-4-pyridinyl)carbonyl)-4-hydroxy-D-prolinamide]",2.3495
24,"N#CC1CN(S(=O)(=O)N2CCC[C@H](C(=O)N3CCC[C@@H]3C(=O)NC3CCOc4ccccc43)C2)C1 (stereo partly drawn) [Example 502, (2R)-N-(chroman-4-yl)-1-((S)-1-((3-cyanoazetidin-l-yl)sulfonyl)piperidine-3-carbonyl)pyrrolidine-2-carboxamide]",2.3515
25,"N#CC1CN(S(=O)(=O)N2CC(C(=O)N3CCC[C@@H]3C(=O)NCc3ccc(C(F)(F)F)cc3)C3CC32)C1 (stereo partly drawn) [Example 503, (2R)-1-(2-((3-cyanoazetidin-1-yl)sulfonyl)-2-azabicyclo[3.1.0]hexane-4-carbonyl)-N-(4-(trifluoromethyl)benzyl)pyrrolidine-2-carboxamide]",2.3565
26,"CC(C)c1cc(C(=O)N2[C@@H](C(=O)N[C@@H](c3cc(F)c(Cl)cc3F)C3COC3)C[C@H]3C[C@H]32)ccn1 [Example 504, (1R,3R,5R)-N-((R)-(4-chloro-2,5-difluorophenyl)(3-oxetanyl)methyl)-2-((2-(2-propanyl)-4-pyridinyl)carbonyl)-2-azabicyclo[3.1.0]hexane-3-carboxamide]",2.3635
